Series [1] concerns neonatal ischemic brain injury.
A further series relates to non-ischemic rats. The conditions noted are these: rat, in vivo.
In another series the target is caspase-2 (Rattus norvegicus, UniProt P55215). Conditions: 5 mg/kg i.p., sacrificed at 24 hrs, brain homogenates.
Series [2] relates to global cerebral ischemia (4VO). The conditions noted are these: 4VO ischemic treated rats versus untreated rats.
Description: Corporal temperature was measured during churgical procedure at day 1 (from anesthesia to stepl (vertebral electrocauterisation and cannula putting up) and step 2 (coratid isolation) of chirurgical procedure during. Corporal temperature was also measured 0, 10, 20 minutes after the beginning of ischemia, at day 2. Temperature was measured 24, 48, 72 H post-ischemia and before final anesthesia for perfusion at day 5. Behavioural studies (feeding, spontaneous activity and reactivity) were performed and evaluated by scoring.
Feeding: observation of stomacal contains at day 5
If refeeding=1; If no refeeding=0
Vivacity=1; More or less vivacious=0.5; No or poor vivacity=0.
Reactivity: animal are sensitive and reactive to noise and move to the origin of the noise.
If curious=1; If relatively curious=0.5; If not very curious=0.
The next series has as its system primary cortical neurons. As for the experimental part:
Primary cortical neurons were cultured from E14 SWISS mice embryos (Janvier). Mice were sacrificed by cervical dislocation and embryos were removed by caesarean. Cerebral cortices were extracted and tissues mechanically triturated 15 times in L15 medium (Gibco BRL) by using 1000 μl tips (Eppendorf), then debris were removed, and the cell suspension was centrifuged at 850 rpm for 10 min. […]
5.1.3 Apoptosis assays. Analysis was performed on previously stained adherent neurons by fluorescence microscopy (FM) (DM IRB inverted fluorescence microscope, Leica, Rueil-malmaison, France) equipped with a 100 W mercury short arc lamp and a X 40 N PLAN L objective or a water immersion X 100 N PLAN objective. Usually, quantitative studies were performed by both FM on approximately 200-600 cells/field by scoring 5-10 random-selected fields per experiment and flow cytometry (FC) for higher sample throughput. […] Activated caspase-2 was detected using specific FAM-conjugated peptides (called FLICA: CaspaTag™ fluorescein Caspase Activity Kits, Q-Biogen, Illkirch, France; ApoFluor™ Caspase Detection Kits, MP BioMedicals): FAM-VDVAD (SEQ ID NO:9)-fmk. Viability loss was assessed by 7-AAD (Sigma) incorporation.

Series [3] deals with global cerebral ischemia (4VO). Conditions: icv, 72 h post-ischemia.
Description: Global cerebral ischemia was induced by four-vessel occlusion (4VO) according a Pulsinelli's derived method (Pulsinelli et al., 1982; Pulsinelli and Buchman, 1988) in young-adult rats (males Wistar aged of 10-12 weeks, 320 g+/−10 g; Janvier). The first day, head of anesthetised rats was positionned in stereotaxic ear bars and tilted down at approximatively 30° to the horizontal. After a midline incision at the level of cervical spine, both vertebral arteries were exposed under microscope and then coagulated by electocautery needle through the alar foramina at the level of first cervical vertebra. Both common carotides were then exposed 24 h later and clamped for 20-30 min (rats fell in the coma when electrocautherisation of both vertebral arteries have been well performed). Carotid arteries were then declamped to allow blood flow reperfusion. […] Rats were let in their cage with waer et food ad libitum.
Rats were sacrificed and brain fixed by trans-cardiac perfusion with paraformaldehyde. Frontal brain slices (25 μm) were strained by Cresyl-Violet or co-stained by Hoechst 33342 and Fluorojade B to assess cell death in the hippocampus and in the cortex. […] Fluoro JadeB (green fluorescence) intake is possible only in cells which have permeable plasma membrane, thus more caracteristic of dying cells. Hoechst 33342 (blue fluorescence) label nuclei all all cells and allows to appreciate nuclear morphology changes during cell death.
Cells were counted at the level of canula, as well as 650 μm and 780 μm after the cannula (antero-posterior axis) in the left brain hemisphere. Cells are counted in three successives slices at such levels in the hippocampus (CA1, CA3, girus dentus) and cortex. […] Both Fluoro Jade B and Hoechst stained slices were observed under a Leica DMIRB inverted fluorescence microscope equiped with ×40 objective and LEICA IM1000/Qfluorobase software (BP 340-80 excitation filter combined with LP 425 emission filter for Hoechst; BP 480/40 excitation filter combined with BP 515-560 emission filter for Fluoro Jade B).
The conditions of series [4]: after freeze/thawing of aqueous solution.
Excerpt: Stability was followed throughout 7 days at RT or after freeze/thawing of aqueous solution comprising various 10-100% of excipients by using HPLC (Varian ProStar 410 equipped of Nucleosile C18 (8 μm, 3.9×150 mm) with detection at 214 nm).
For series [5], the system named is 32 others related-proteases or enzymes involved in signal transduction and neuronal metabolism, nitric oxide pathway or prostanglandin metabolism. The conditions noted are these: 1 μM, n=2.

The values below come from patent US8173600B2, “Caspase-2 inhibitors and their biological applications” (Chiesi Farmaceutici S.p.A., priority 2004, dated 2012).

Like-named read-outs stand apart in the source and are kept apart here. Peptide text beside a SMILES is read from it. * marks the point of attachment. X1 = COC(=O)C[C@H](N*)C(=O)COc1c(F)cccc1F; Quinaldoyl = O=C(c1ccc2ccccc2n1)*

Sequence of caspase-2 (P55215 whole entry): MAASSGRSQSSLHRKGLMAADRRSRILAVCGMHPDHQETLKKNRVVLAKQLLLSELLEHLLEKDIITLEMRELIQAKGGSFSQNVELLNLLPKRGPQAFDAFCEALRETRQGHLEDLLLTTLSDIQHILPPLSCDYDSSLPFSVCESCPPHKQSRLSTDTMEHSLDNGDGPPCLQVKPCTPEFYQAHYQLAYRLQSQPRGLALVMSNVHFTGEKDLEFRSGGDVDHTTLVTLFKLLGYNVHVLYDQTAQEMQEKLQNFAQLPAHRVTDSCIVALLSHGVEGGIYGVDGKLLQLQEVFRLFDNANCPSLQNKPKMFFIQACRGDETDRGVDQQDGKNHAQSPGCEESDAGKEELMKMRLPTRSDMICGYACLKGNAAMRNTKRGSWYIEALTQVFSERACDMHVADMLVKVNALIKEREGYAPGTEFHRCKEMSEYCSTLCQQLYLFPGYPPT
Description for caspase-2: Brain hemispheres were lysed in 10 mM Hepes, 5 mM MgCl2, 42 mM KCl, 1 mM DTT, 0.5% CHAPS supplemented by complete protease inhibitors cocktail (Roche, Meylan, France) by using a manual potter on ice. Homogenates were centrifuged at 10000 g/4° C. for 10 min before keeping surnageant. Protein concentration was determined using BCA test. Proteins (50 μg) were separated on 12.5% polyacrylamide gels and transferred to PVDF membranes (Amersham). […] The monoclonal anti-mouse caspase-2 antibody (52 kDa; 11B4, Alexis Biochemicals) was used at a 1:1000 dilution; actin (42 kDa; Sigma; antibody diluted 1:5000) is used as an equal loading control.
Caspase-2 activity (100 μg protein brain sample) was assessed in 100 μl assay buffer (50 mM HEPES, pH 7.4, 100 mM NaCl, 0.1% CHAPS, 10 mM DTT, 1 mM EDTA, 10% glycerol). The cleavage of 50 μM VDVAD(SEQ ID NO:9)-AMC by recombinant caspase-2 was measured after 2 h at 37° C. on a fluorescence microplate reader by monitoring the fluorescence emission at 510 nm upon excitation at 405 nm.
Animals were sacrified at 24 hrs. Brain homogenates were subjected to caspase-2 activity assay and western blot analysis. IL: ipsilateral injured hemisphere, CL: contralateral unlesionned hemisphere.
Description for non-ischemic rats: The selective loss of vulnerable cells and Qco-VDVAD-dfp(SEQ ID NO:1)'s effects (intracerebroventricular (ICV) administrated) have been evaluated at 72 h. Rats were sacrificed and brain fixed by trans-cardiac perfusion with paraformaldehyde. Frontal brain slices (25 μm) were strained by Cresyl-Violet or co-stained by Hoechst 33342 and Fluorojade B to assess cell death in the hippocampus and in the cortex. Cresyl-Violet is a pink-red dye that labels cytoplamic body Nissl (endoplasmic reticulum structures) and nuclei in living cells thus resulting in pale or absence of staining in dying cells. Fluoro JadeB (green fluorescence) intake is possible only in cells which have permeable plasma membrane, thus more caracteristic of dying cells. Hoechst 33342 (blue fluorescence) label nuclei all all cells and allows to appreciate nuclear morphology changes during cell death.
Cells were counted at the level of canula, as well as 650 μm and 780 μm after the cannula (antero-posterior axis) in the left brain hemisphere. Cells are counted in three successives slices at such levels in the hippocampus (CA1, CA3, girus dentus) and cortex. Cresyl-Violet stained slices were observed under white light (Nikon Eclipse E 800M microscope equipped with ×40 et ×20 objectives and LEICA IM50 software). […]

As to `COC(=O)C[C@H](NC(=O)[C@H](C)NC(=O)[C@@H](NC(=O)[C@H](CC(=O)OC)NC(=O)[C@@H](NC(=O)c1ccc2ccccc2n1)C(C)C)C(C)C)C(=O)COc1c(F)cccc1F` [Qco-VDVAD-dfp, 2-Quinolinylcarbonyl-L-Valinyl-L-Aspartyl (methyl ester)-L-Valinyl-L-Alanyl-L-Aspartyl (methyl ester) 2,6-difluorophenyl ester] (Quinaldoyl-VD(OMe)VA-X1), in series [1] (0.1 mg/kg i.p. 1 h after MCAO, 48 hrs, control 22.64±1.6%), the “infarct volume (%), mean” value was 9.95±2.8%. In addition, the “reduction in infarct volume” value in series [1] (0.1 mg/kg i.p. single dose 1 h after MCAO / ischemic onset, 48 hrs, n=19) was determined as 44%. Further, in series [1] (5 mg/kg i.p. before ischemic onset, 4 of 12 animals), the “infarct volume of the four animals with intermediate protection” value is given as 16.5±1.32%. In series [1] (5 mg/kg i.p. before ischemic onset, 8 of 12 animals), the “infarct volume, median of the eight animals with complete protection or very marked smaller infarct” value was 0.5%. For the same molecule, the “infarct volume (% damage of ipsilateral hemisphere), mean” value in series [1] (5 mg/kg i.p. before ischemic onset, 48 hrs, control 22.1±1.4%) amounted to 5.7±2.3%. Further, the “infarct volume, median” value in series [1] (5 mg/kg i.p. before ischemic onset, all 12 animals, control median=21) was 0.5. The “reduction in infarct volume” value in series [1] (5 mg/kg i.p. single dose 5-15 min before ischemic onset, 48 hrs, n=12) is reported as 74%. Also, the “terminal transferase dUTP nick end labeling (TUNEL)” value in series [1] (ipsilateral cortex of treated animals) is “significantly decreased”. Besides, in the series with non-ischemic rats, the “cell death in hippocampus or cortex of non-ischemic rats” value is recorded as below 10% and the topical toxicity result is “not topically tokic”. Also, on caspase-2, the “caspase-2 activity in brain of ischemic rat pups” value is reported as “inhibited caspase-2 activity” and the “caspase-2 processing in brain of ischemic rat pups (western blot)” value is on record as “inhibited caspase-2 activity as well as caspase-2 processing”. Moreover, the “general behaviour scoring (feeding, spontaneous activity, reactivity)” value in series [2] is on record as “better scoring”. For the same molecule, in the series with primary cortical neurons (24 h serum deprivation), the “caspase-2 activity in serum-deprived cortical neurons” value is given as “prevents caspase-2 activity”. Also, in the series on primary cortical neurons (inferred from prevention of caspase-2 activity in cortical neuron cultures), the cell permeance entry is recorded as “cell-permeant”. The “Cresyl-violet staining intensity in CA1” value in series [3] is recorded as “partially restored”. In addition, in series [3] (versus ischemic rats), the “abnormal nuclei in CA1 (Hoechst)” value was “less abnormal nuclei”. For the same molecule, the “cells incorporating Fluorojade B in CA1” value in series [3] (ischemic rats 50-60%) is 10-20%. Also, the “degradation after freeze/thawing (HPLC)” value in series [4] is given as “No degradation”. Besides, in series [5], the “cross reactivity against 32 other related proteases or enzymes” value is given as “no cross reactivity”.
